Reference: patent publication US12391683B2, “Therapeutic compounds and methods” (Actio Biosciences, Inc., priority 2022, dated 2025)
pIC50: −log10 of the molar value. Several values for one entry are separate records, joined by “and”; a condition that tells them apart may be missing. Identical values can stand only once.

How the values were obtained:
[1] = molecular target: Human TRPV4 (Homo sapiens, UniProt Q9HBA0); assay: TRPV4 calcium flux assay (FLIPR, antagonist mode); type: cell-based; set-up: HiBiT (inferred from the expression read-out); host or cells: HEK293T; details: HEK293T cells transfected with hTRPV4; antagonist mode vs EC80 of TRPV4 agonist; average of at least 3 separate experiments; read-out: Human TRPV4 Ca2+ Assay IC50
Sequence of Human TRPV4 (Q9HBA0 whole entry): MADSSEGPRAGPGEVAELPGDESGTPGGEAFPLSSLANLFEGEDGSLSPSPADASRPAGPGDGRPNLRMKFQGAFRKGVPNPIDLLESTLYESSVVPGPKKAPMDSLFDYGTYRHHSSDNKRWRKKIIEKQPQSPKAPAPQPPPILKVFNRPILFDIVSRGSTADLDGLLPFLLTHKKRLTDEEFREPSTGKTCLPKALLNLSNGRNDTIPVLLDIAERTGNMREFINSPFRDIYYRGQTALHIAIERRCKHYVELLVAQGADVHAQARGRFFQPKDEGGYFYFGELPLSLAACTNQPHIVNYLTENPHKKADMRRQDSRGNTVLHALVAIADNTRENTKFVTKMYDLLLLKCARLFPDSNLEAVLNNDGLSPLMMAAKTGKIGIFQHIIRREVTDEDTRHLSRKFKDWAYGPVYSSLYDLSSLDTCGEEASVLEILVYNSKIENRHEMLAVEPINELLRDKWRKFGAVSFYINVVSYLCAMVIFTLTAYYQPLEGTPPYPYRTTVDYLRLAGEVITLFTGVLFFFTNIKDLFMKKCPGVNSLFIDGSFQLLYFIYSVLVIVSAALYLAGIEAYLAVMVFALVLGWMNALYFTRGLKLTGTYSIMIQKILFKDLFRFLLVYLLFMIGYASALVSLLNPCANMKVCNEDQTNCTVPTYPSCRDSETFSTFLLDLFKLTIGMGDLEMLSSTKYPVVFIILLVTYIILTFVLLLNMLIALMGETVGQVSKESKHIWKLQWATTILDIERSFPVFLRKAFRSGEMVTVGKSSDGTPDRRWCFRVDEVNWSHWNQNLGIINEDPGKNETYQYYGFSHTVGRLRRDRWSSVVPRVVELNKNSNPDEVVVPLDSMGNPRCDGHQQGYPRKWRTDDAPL
Experimental: Example 23. TRPV4 Calcium Assay Methods
Human embryonic kidney 293T (HEK293T/293T) cells are cultured in complete media (Dulbecco's Modified Eagle Medium (DMEM), containing 10% fetal bovine serum (FBS) and 1× penicillin-streptomycin) in a T-75 tissue culture flask. At 90% confluency, cells are detached using TrypLE™ Express cell dissociation buffer. TrypLE™ Express buffer is neutralized by adding culture media in excess. Cells are gently triturated and counted using trypan blue in a Countess 3 automated cell counter. Cells are transferred to a 50 mL conical tube and spun down at 1000 rotations per minute (RPM) for five minutes in a benchtop centrifuge. Media containing detaching enzyme is aspirated off the pellet, followed by resuspension to the desired concentration of 2×10^6 cells per mL in complete DMEM.
Transfection preparations were scaled using a combination of 6 μg of TRPV4 wild-type or mutant plasmid DNA, 36 μL of Fugene6 transfection reagent, and 1000 μL of OptiMEM media for every 2×10^6 cells needed. The transfection mix is left to incubate for 20 minutes at room temperature. Total seeding mixture (1000 μL 2×10^6 cells, 1000 μL transfection mix previously described, and 1000 μL complete DMEM) for one transfection is combined into a 15 mL conical tube. The cells and transfection plasmid are mixed thoroughly and dispensed into a reservoir. This is plated at 25 μL per well in a black 384, black-well, clear-bottom, tissue-culture treated plate. This yields approximately 16,000 cells per well. Plasmid DNA constructs were designed by Actio Biosciences in conjunction with Genscript, and generated by Genscript, for all hTRPV4 wild-type and hTRPV4 P/LP (ClinVar) mutations (G78W, P82S, T891, P97R, R186Q, R232C, R232P, R237G, R237Q, R237 L, R269C, R269H, R269S, G270V, R271P, F273 L, K276E, E278K, G280S, Y281S, R315G, R315W, R316C, R316H, R316 L, R316S, I331F, D333G, S403T, K403T, K407E, S542P, S542Y, L543R, Y591N, R594C, R594H, R594S, G600E, Y602C, R616Q, F617 L, L618P, V6201, A716S, A716T, L735R, T740I, R775K, W785R, E797D, E797K, P799A, P799R, P799S, P799 L, G800D, K801E, P827H, F471del, N797del). The remaining cells are plated in the same manner, in a 384, white-well, clear-bottom, tissue-culture treated plate for expression and relative cell number determination. Plates are placed in the incubator at 37° C. overnight.
Compounds were brought to 10 mM in DMSO. DMSO concentration was kept constant throughout the dilution of any compound. DMSO negative control and concentration-response curves were nanoliter-spotted via PICO8 automated dispenser at 5× test concentration into a 384w clear polypropylene plate containing 1×HBSS+20 mM HEPES buffer. A predetermined concentration equivalent to the EC80 of TRPV4 agonist on hTRPV4 was prepared at 6× in 1×HBSS+20 mM HEPES and loaded into a separate 384-well v-bottom polypropylene plate.
Approximately 18 hours post-transfection, the cell plates were removed from the incubator and equal volume (25 uL) Calcium 6 dye was gently added. Calcium 6 dye containing probenecid (final 5 mM) was prepared per manufacturer's instructions. Cell plate was returned to the incubator for 1 hour, at 37° C.
FLIPR Penta was programmed to add compound using the following settings • Pipettor Head=384 • Read Mode 1 Excitation Wavelength=470_495 • Read Mode 1 Emission Wavelength=515_575 • Read Mode 1 Exposure=0.1000 • Read Mode 1 Gain=6.50 • Read Mode 1 Excitation Intensity=20 • Volume of addition=12.5 μL • Height=40 μL • Speed=15 μL/second
Raw data was exported and analyzed for maximum signal (RFU) after agonist addition—the average baseline (RFU) in the first 15 seconds per well. Data was plotted in GraphPad Prism to determine EC50 or IC50 of the molecules.

[2] = tested on: Hepatocytes; assay: Hepatocytes predicted clearance, rat
[3] = tested on: Hepatocytes; assay: Hepatocytes predicted clearance, mouse
[4] = tested on: Hepatocytes; assay: Hepatocytes predicted clearance, human
[5] = tested on: Hepatocytes; assay: Hepatocytes predicted clearance, dog
[6] = tested on: Hepatocytes; assay: Hepatocytes predicted clearance, cyno
[7] = molecular target: recombinant human CYP3A4 enzyme (Homo sapiens, UniProt P08684); assay: CYP3A4 incubation assay; type: in vitro ADME
Sequence of recombinant human CYP3A4 enzyme (P08684 whole entry): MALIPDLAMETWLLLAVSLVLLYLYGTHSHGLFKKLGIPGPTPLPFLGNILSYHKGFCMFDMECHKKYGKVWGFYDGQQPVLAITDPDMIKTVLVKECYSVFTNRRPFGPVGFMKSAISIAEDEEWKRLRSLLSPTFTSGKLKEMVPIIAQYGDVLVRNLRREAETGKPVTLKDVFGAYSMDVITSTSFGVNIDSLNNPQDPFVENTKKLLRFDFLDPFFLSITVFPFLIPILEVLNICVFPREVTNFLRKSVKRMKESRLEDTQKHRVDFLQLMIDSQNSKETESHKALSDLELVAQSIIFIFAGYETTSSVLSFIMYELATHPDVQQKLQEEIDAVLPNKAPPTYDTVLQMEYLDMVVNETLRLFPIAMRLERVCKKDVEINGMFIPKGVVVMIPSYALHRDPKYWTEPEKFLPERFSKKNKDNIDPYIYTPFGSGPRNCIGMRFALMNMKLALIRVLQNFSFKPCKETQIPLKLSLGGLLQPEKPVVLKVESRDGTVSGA
Experimental: Example 24. CYP3A4 Incubation Assay
Compounds (final concentration […]) were incubated in 100 mM phosphate buffer containing 100 pmol/mL recombinant human CYP3A4 enzyme for 0, 5, 10, 15 and 25 minutes.
Testosterone was used as positive control. Reaction was initiated by the addition of NADPH (final concentration […]) and carried out at 37° C. The reaction was stopped by the addition of 4 volumes of cold acetonitrile (with 100 nM alprazolam, 200 nM labetalol, 200 nM imipramine and 2 μM ketoprofen as internal standards). Samples were centrifuged at 3,220 g for 40 minutes to precipitate protein. 70 μL supernatant was transferred to the analysis plate containing 110 μL of acetonitrile for LC-MS/MS analysis.
The following table indicates the percentage remaining for the indicated examples after incubation with recombinant Human CYP3A4 after 25 minutes under the same conditions as described for Example […].

[8] = 100 pmol/mL recombinant human CYP3A4, 37° C., 0-25 min

CC(C)(O)c1cnc(N2C[C@@]3(CCC(C)(C)[C@H](Cn4cnc5ccc(C#N)cc54)C3)OC2=O)cn1 (single isomer, unassigned) [Example 1]
pIC50 [1]: 6.22 | Hepatocytes predicted clearance in rat [2]: 10.8 mL/min/kg | Hepatocytes predicted clearance in mouse [3]: 118 mL/min/kg | Hepatocytes predicted clearance in human [4]: 4.5 mL/min/kg | Hepatocytes predicted clearance in dog [5]: 11.5 mL/min/kg | Hepatocytes predicted clearance in cyno [6]: 4 mL/min/kg

CC(C)(O)c1cnc(N2C[C@@]3(CCC4(CC4)[C@@H](Cn4cnc5ccc(C#N)cc54)C3)OC2=O)cn1 (single isomer, unassigned) [Example 3]
pIC50 [1]: 6.07 | Hepatocytes predicted clearance in rat [2]: 79.5 mL/min/kg | Hepatocytes predicted clearance in mouse [3]: 131 mL/min/kg | Hepatocytes predicted clearance in human [4]: 3.17 mL/min/kg | Hepatocytes predicted clearance in dog [5]: 17.3 mL/min/kg | Hepatocytes predicted clearance in cyno [6]: 182 mL/min/kg

CC(C)(O)c1cnc(N2C[C@@]3(CCC4(CC4)[C@](C)(Cn4cnc5ccc(C#N)cc54)C3)OC2=O)cn1 (single isomer, unassigned) [Example 6]
pIC50 [1]: 8.10 | Hepatocytes predicted clearance in rat [2]: 8.3 mL/min/kg | Hepatocytes predicted clearance in mouse [3]: 24.5 mL/min/kg | Hepatocytes predicted clearance in human [4]: 6.5 mL/min/kg | Hepatocytes predicted clearance in dog [5]: 3.17 mL/min/kg | CYP3A4 Clint ([7]; human, recombinant enzyme): <0.07, <0.07 μL/min/pmol CYP450 | Hepatocytes predicted clearance in cyno [6]: 120 mL/min/kg

CC(C)(O)c1cnc(N2C[C@@]3(CCC[C@](CF)(Cn4cnc5ccc(C#N)cc54)C3)OC2=O)cn1 (single isomer, unassigned) [Example 7]
pIC50 [1]: 7.96 | Hepatocytes predicted clearance in rat [2]: 6.7 mL/min/kg | Hepatocytes predicted clearance in mouse [3]: 43.2 mL/min/kg | Hepatocytes predicted clearance in human [4]: 1 mL/min/kg | Hepatocytes predicted clearance in dog [5]: < 0.17 mL/min/kg | CYP3A4 Clint [7, 8]: <0.07, <0.07 μL/min/pmol CYP450 | Hepatocytes predicted clearance in cyno [6]: 4.5 mL/min/kg

CC(C)(O)c1cnc(N2C[C@@]3(CC[C@H]4C[C@@]4(Cn4cnc5ccc(C#N)cc54)C3)OC2=O)cn1 (single isomer, unassigned) [Example 8]
pIC50 [1]: 6.41 | Hepatocytes predicted clearance in rat [2]: 54.5 mL/min/kg | Hepatocytes predicted clearance in mouse [3]: 281.2 mL/min/kg | Hepatocytes predicted clearance in human [4]: < 0.17 mL/min/kg | Hepatocytes predicted clearance in dog [5]: 30 mL/min/kg | CYP3A4 Clint ([7]; human, recombinant enzyme): <0.07, <0.07 μL/min/pmol CYP450 | Hepatocytes predicted clearance in cyno [6]: 37.5 mL/min/kg

CO[C@@H]1CC[C@@]2(CN(c3cnc(C(C)(C)O)cn3)C(=O)O2)C[C@@]1(C)Cn1cnc2ccc(C#N)cc21 (single isomer, unassigned) [Example 10]
pIC50 [1]: 6.80 | CYP3A4 Clint [7, 8]: 0.22 μL/min/pmol CYP450 and 0.21 μL/min/pmol CYP450

CC(C)(C)CN1C[C@@]2(CCC(F)(F)[C@H](Cn3cnc4ccc(C#N)cc43)C2)OC1=O (single isomer, unassigned) [Example 11]
pIC50 [1]: 7.41 | Hepatocytes predicted clearance in rat [2]: 251.2 mL/min/kg | Hepatocytes predicted clearance in mouse [3]: 515.2 mL/min/kg | Hepatocytes predicted clearance in human [4]: 17.3 mL/min/kg | Hepatocytes predicted clearance in dog [5]: 63.3 mL/min/kg | Hepatocytes predicted clearance in cyno [6]: 90.5 mL/min/kg

N#Cc1ccc2ncn(C[C@@H]3C[C@@]4(CCC3(F)F)CN(c3ccccc3Cl)C(=O)O4)c2c1 (single isomer, unassigned) [Example 12]
pIC50 [1]: 6.99 | Hepatocytes predicted clearance in rat [2]: 82.5 mL/min/kg | Hepatocytes predicted clearance in mouse [3]: 449.3 mL/min/kg | Hepatocytes predicted clearance in human [4]: 7.5 mL/min/kg | Hepatocytes predicted clearance in dog [5]: 284.5 mL/min/kg | Hepatocytes predicted clearance in cyno [6]: 101 mL/min/kg

CCOc1ccccc1N1C[C@@]2(CCC(F)(F)[C@H](Cn3cnc4ccc(C#N)cc43)C2)OC1=O (single isomer, unassigned) [Example 13]
pIC50 [1]: 6.30

C=C1CC[C@@]2(CN(c3cnc(C(C)(C)O)cn3)C(=O)O2)C[C@@]1(C)Cn1cnc2ccc(C#N)cc21 (single isomer, unassigned) [Example 16]
pIC50 [1]: 5.67 | Hepatocytes predicted clearance in rat [2]: 69.3 mL/min/kg | Hepatocytes predicted clearance in mouse [3]: 90.7 mL/min/kg | Hepatocytes predicted clearance in human [4]: 5.5 mL/min/kg | Hepatocytes predicted clearance in dog [5]: 4 mL/min/kg | CYP3A4 Clint [7, 8]: 0.20 μL/min/pmol CYP450 and 0.19 μL/min/pmol CYP450 | Hepatocytes predicted clearance in cyno [6]: 22.7 mL/min/kg

CC(C)(O)c1cnc(N2C[C@@]3(CC[C@@H](F)[C@](C)(Cn4cnc5cc(F)c(C#N)cc54)C3)OC2=O)cn1 (single isomer, unassigned) [Example 18]
pIC50 [1]: 8.05

CC(C)(O)c1cnc(N2C[C@@]3(CC[C@@H](F)[C@](C)(Cn4cnc5c(Cl)cc(C#N)cc54)C3)OC2=O)cn1 (single isomer, unassigned) [Example 19]
pIC50 [1]: 8.05

CO[C@]1(Cn2cnc3ccc(C#N)cc32)CCC[C@@]2(CN(c3cnc(C(C)(C)O)cn3)C(=O)O2)C1 [Example 9, 1-(((5S,7R)-3-(5-(2-Hydroxypropan-2-yl)pyrazin-2-yl)-7-methoxy-2-oxo-1-oxa-3-azaspiro[4.5]decan-7-yl)methyl)-1H-benzo[d]imidazole-6-carbonitrile]
pIC50 [1]: 6.67 | CYP3A4 Clint [7, 8]: 0.42 μL/min/pmol CYP450 and 0.33 μL/min/pmol CYP450
